Measurements taken from US20200179428A1, “CYCLIC PHOSPHATE SUBSTITUTED NUCLEOSIDE DERIVATIVES AND METHODS OF USE THEREOF FOR THE TREATMENT OF VIRAL DISEASES” (priority 2016, published 2020).
Like-named read-outs stand apart in the source and are kept apart here.

Key:
[1] = tested on: replicon cells (1b-Con1); assay: Replicon activity assay (replicon RNA level by real-time RT-PCR, Taqman); type: cell-based; conditions: HCV replicon genotype 1b, read-out: EC50 (1b) Range
Method: (§1) To measure cell-based anti-HCV activity of the compounds of the present invention, replicon cells (1b-Con1) are seeded at 5000 cells/well in 96-well plates one day prior to treatment with a compound of the invention. Various concentrations of a test compound of the invention in DMSO are then added to the replicon cells, with the final concentration of DMSO at 0.5% and fetal bovine serum at 10% in the assay media. Cells are harvested three days post-dosing, and the replicon RNA level is determined using real-time RT-PCR (Taqman assay) with GAPDH RNA as endogenous control. EC50 values are calculated from experiments with 10 serial twofold dilutions of the inhibitor in triplicate. To measure cytotoxicity in replicon cells of an inhibitor, an MTS assay is performed according to the manufacturer's protocol for CellTiter 96 Aqueous One Solution Cell Proliferation Assay (Promega, Cat # G3580) three days post dosing on cells treated identically as in replicon activity assays. […] Cytotoxicity in other types of cells may be measured using the same MTS protocol.

[2] = Cytotoxicity MTS assay (CellTiter 96 Aqueous One Solution) in replicon cells; type: cell-based; conditions: EDU, read-out: CC50 (EDU) Range; for CC50 at 3 days: HCV replicon cells (1b-Con1)
Method: as §1

| Compound | EC50 [1] [µM] | CC50 at 3 days [2] [µM] | EC50 ([1]; Hepatitis C virus) [µM] | CC50 [2] [µM] |
| --- | --- | --- | --- | --- |
| C#C[C@]1(C)[C@@H]2OP(=O)(OCCC(C(=O)OC(C)C)C(=O)OC(C)C)OC[C@H]2O[C@H]1n1ccc(=O)[nH]c1=O (single isomer, unassigned) [Compound 36A] | 0.25 to 1 | > 50 | – | – |
| CC(C)OC(=O)C(CCOP1(=O)OC[C@H]2O[C@@H](n3ccc(=O)[nH]c3=O)[C@](C)(Cl)[C@@H]2O1)C(=O)OC(C)C (stereo partly drawn) [Compound 38A] | – | > 50 | ≤ 0.25 | – |
| C#C[C@]1(C)[C@@H]2O[P@@](=O)(OCC[C@H](OC)C(=O)OC(C)C)OC[C@H]2O[C@H]1n1ccc(=O)[nH]c1=O [Compound 56A] | – | > 50 | 0.25 to 1 | – |
| CC(C)OC(=O)C(C)CCOP1(=O)OC[C@H]2O[C@@H](n3ccc(=O)[nH]c3=O)[C@](C)(Cl)[C@@H]2O1 (single isomer, unassigned) [Compound 39B1] | – | > 50 | ≤ 0.25 | – |
| C#C[C@]1(C)[C@@H]2O[P@@](=O)(OCC[C@H](C)C(=O)OC(C)C)OC[C@H]2O[C@H]1n1cnc2c(N)ncnc21 [Compound 72A] | – | > 50 | > 10 | – |
| C#C[C@]1(C)[C@@H]2O[P@@](=O)(OC[C@@H](CC(=O)OC(C)C)OC)OC[C@H]2O[C@H]1n1ccc(=O)[nH]c1=O [Compound 62A] | – | > 50 | > 10 | – |
| C#C[C@@]1(O)[C@@H]2OP(=O)(OCC[C@@H](OC)C(=O)OC(C)C)OC[C@H]2O[C@H]1n1ccc(=O)[nH]c1=O (stereo partly drawn) [Compound 76] | – | > 50 | ≤ 0.25 | – |
| CC(C)OC(=O)C(C)CCOP1(=O)OC[C@H]2O[C@@H](n3ccc(=O)[nH]c3=O)[C@](C)(N)[C@@H]2O1 (single isomer, unassigned) [Compound 10A1] | – | > 50 | > 10 | – |
| C#C[C@]1(C)[C@@H]2O[P@@](=O)(OCCOCC(=O)OC(C)C)OC[C@H]2O[C@H]1n1ccc(=O)[nH]c1=O [Compound 68A] | – | > 50 | > 10 | – |
| C#C[C@]1(C)[C@@H]2O[P@](=O)(OCCC(CO)C(=O)OC(C)C)OC[C@H]2O[C@H]1n1ccc(=O)[nH]c1=O (stereo partly drawn) [Compound 44B] | – | > 50 | > 10 | – |
| C#C[C@]1(C)[C@@H]2O[P@@](=O)(OCCC(C(=O)OC(C)C)C(C)C)OC[C@H]2O[C@H]1n1ccc(=O)[nH]c1=O (stereo partly drawn) [Compound 32A] | – | > 50 | > 10 | – |
| CCOC(=O)C1(CCO[P@]2(=O)OC[C@H]3O[C@@H](n4ccc(=O)[nH]c4=O)[C@](C)(N)[C@@H]3O2)CC1 [Compound 28B] | – | > 50 | > 10 | – |
| C#C[C@@]1(O)[C@@H]2O[P@](=O)(OCCC(C(=O)OC(C)C)C(=O)OC(C)C)OC[C@H]2O[C@H]1n1ccc(=O)[nH]c1=O [Compound 59B] | – | > 50 | ≤ 0.25 | – |
| C#C[C@]1(C)[C@@H]2O[P@](=O)(OCCC(C)(C)C(=O)OC(C)C)OC[C@H]2O[C@H]1n1ccc(=O)[nH]c1=O [Compound 20B] | – | > 50 | > 10 | – |
| C#C[C@]1(C)[C@@H]2O[P@@](=O)(OC[C@H](CC(=O)OC(C)C)OC)OC[C@H]2O[C@H]1n1ccc(=O)[nH]c1=O [Compound 60A] | – | > 50 | > 10 | – |
| C#C[C@]1(C)[C@@H]2O[P@@](=O)(OCCC(CO)C(=O)OC(C)C)OC[C@H]2O[C@H]1n1ccc(=O)[nH]c1=O (stereo partly drawn) [Compound 44A] | – | > 50 | > 10 | – |
| CC(C)OC(=O)C[C@H](F)CO[P@@]1(=O)OC[C@H]2O[C@@H](n3ccc(=O)[nH]c3=O)[C@](C)(N)[C@@H]2O1 [Compound 65A] | – | > 50 | > 10 | – |
| C#C[C@]1(C)[C@@H]2O[P@](=O)(OCC[C@@H](OC)C(=O)OC(C)C)OC[C@H]2O[C@H]1n1ccc(=O)[nH]c1=O [Compound 57B] | – | > 50 | 1 to 10 | – |
| CCC(CCO[P@@]1(=O)OC[C@H]2O[C@@H](n3ccc(=O)[nH]c3=O)[C@](C)(N)[C@@H]2O1)C(=O)OC(C)C (stereo partly drawn) [Compound 23A] | – | > 50 | > 10 | – |
| C#C[C@]1(C)[C@@H]2O[P@](=O)(OCCC(C(=O)OC(C)C)C(C)C)OC[C@H]2O[C@H]1n1ccc(=O)[nH]c1=O (stereo partly drawn) [Compound 32B] | – | > 50 | > 10 | – |
| CC(C)OC(=O)C(CCO[P@@]1(=O)OC[C@H]2O[C@@H](n3cnc4c(N)ncnc43)[C@](C)(Cl)[C@@H]2O1)C(=O)OC(C)C [Compound 70A] | – | > 50 | 0.25 to 1 | – |
| C#C[C@]1(C)[C@@H]2O[P@@](=O)(OCCC(CC)C(=O)OC(C)C)OC[C@H]2O[C@H]1n1ccc(=O)[nH]c1=O (stereo partly drawn) [Compound 31A] | – | > 50 | 0.25 to 1 | – |
| CC(C)OC(=O)CC(F)(F)CO[P@]1(=O)OC[C@H]2O[C@@H](n3ccc(=O)[nH]c3=O)[C@](C)(N)[C@@H]2O1 [Compound 49B] | – | < 50 | 1 to 10 | – |

| Compound | EC50 [1] [µM] | CC50 at 3 days [2] [µM] | EC50 ([1]; Hepatitis C virus) [µM] | CC50 [2] [µM] |
| --- | --- | --- | --- | --- |
| C#C[C@]1(C)[C@@H]2O[P@@](=O)(OC[C@H](F)CC(=O)OC(C)C)OC[C@H]2O[C@H]1n1ccc(=O)[nH]c1=O [Compound 66A] | – | > 50 | > 10 | – |
| C#C[C@]1(C)[C@@H]2O[P@](=O)(OCC[C@H](OC)C(=O)OC(C)C)OC[C@H]2O[C@H]1n1ccc(=O)[nH]c1=O [Compound 56B] | – | > 50 | 0.25 to 1 | – |
| CC(C)OC(=O)[C@@H](C)CCO[P@]1(=O)OC[C@H]2O[C@@H](n3cnc4c(N)ncnc43)[C@](C)(N)[C@@H]2O1 [Compound 73B] | – | > 50 | 1 to 10 | – |
| C[C@@]1(N)[C@@H]2O[P@](=O)(OCCC3CCOC3=O)OC[C@H]2O[C@H]1n1ccc(=O)[nH]c1=O (stereo partly drawn) [Compound 46B] | – | > 50 | > 10 | – |
| C#C[C@]1(C)[C@@H]2O[P@@](=O)(OCC[C@H](OC(C)=O)C(=O)OC(C)C)OC[C@H]2O[C@H]1n1ccc(=O)[nH]c1=O [Compound 51A] | – | > 50 | 1 to 10 | – |
| CC(C)OC(=O)[C@@H](C)CCOP1(=O)OC[C@H]2O[C@@H](n3ccc(=O)[nH]c3=O)[C@](C)(Cl)[C@@H]2O1 (single isomer, unassigned) [Compound 39A1] | – | > 50 | ≤ 0.25 | – |
| C#C[C@]1(C)[C@@H]2O[P@](=O)(OCC(CC(=O)OC(C)C)N(C)C(=O)OC(C)(C)C)OC[C@H]2O[C@H]1n1ccc(=O)[nH]c1=O (stereo partly drawn) [Compound 74B] | – | > 50 | > 10 | – |
| C[C@@]1(N)[C@@H]2OP(=O)(OCCC3(C(=O)OC4CCCC4)CCC3)OC[C@H]2O[C@H]1n1ccc(=O)[nH]c1=O (stereo partly drawn) [Compound 29A] | – | > 50 | > 10 | – |
| CC(C)OC(=O)C1(CCO[P@@]2(=O)OC[C@H]3O[C@@H](n4ccc(=O)[nH]c4=O)[C@](C)(N)[C@@H]3O2)CC1 [Compound 27A] | – | > 50 | > 10 | – |
| CC(C)OC(=O)C(C)(C)CCO[P@]1(=O)OC[C@H]2O[C@@H](n3ccc(=O)[nH]c3=O)[C@](C)(N)[C@@H]2O1 [Compound 19B] | – | > 50 | > 10 | – |
| C#C[C@]1(C)[C@@H]2O[P@](=O)(OCCOCC(=O)OC(C)C)OC[C@H]2O[C@H]1n1ccc(=O)[nH]c1=O [Compound 68B] | – | > 50 | 1 to 10 | – |
| C#C[C@]1(C)[C@@H]2O[P@@](=O)(OC[C@@H](F)CC(=O)OC(C)C)OC[C@H]2O[C@H]1n1ccc(=O)[nH]c1=O [Compound 64A] | – | > 50 | 0.25 to 1 | – |
| C#C[C@]1(C)[C@@H]2O[P@](=O)(OCC(C)CCC(=O)OC(C)C)OC[C@H]2O[C@H]1n1ccc(=O)[nH]c1=O (stereo partly drawn) [Compound 22B] | – | > 50 | > 10 | – |
| C#C[C@]1(C)[C@@H]2OP(=O)(OCCC(C)C(=O)OC(C)C)OC[C@H]2O[C@H]1n1ccc(=O)[nH]c1=O (stereo partly drawn) [Compound 1A] | – | – | 1 to 10 | > 50 |
| CC(CCO[P@]1(=O)OC[C@H]2O[C@@H](n3ccc(=O)[nH]c3=O)[C@](C)(N)[C@@H]2O1)CC(=O)OC(C)C (stereo partly drawn) [Compound 21B] | – | > 50 | > 10 | – |
| C#C[C@]1(C)[C@@H]2O[P@](=O)(OCC[C@@H](OC(C)=O)C(=O)OC(C)C)OC[C@H]2O[C@H]1n1ccc(=O)[nH]c1=O [Compound 50B] | – | > 50 | 0.25 to 1 | – |
| CC(=O)O[C@@H](CO[P@]1(=O)OC[C@H]2O[C@@H](n3ccc(=O)[nH]c3=O)[C@](C)(N)[C@@H]2O1)[C@@H](OC(C)=O)C(=O)OC(C)C [Compound 54B] | – | > 50 | > 10 | – |
| CC(=O)O[C@@H](CO[P@@]1(=O)OC[C@H]2O[C@@H](n3ccc(=O)[nH]c3=O)[C@](C)(N)[C@@H]2O1)[C@@H](OC(C)=O)C(=O)OC(C)C [Compound 54A] | – | > 50 | > 10 | – |
| C#C[C@@]1(OC(=O)CCC)[C@@H]2O[P@@](=O)(OCC[C@H](C)C(=O)OC(C)C)OC[C@H]2O[C@H]1n1ccc(=O)[nH]c1=O [Compound 85A2] | – | > 50 | ≤ 0.25 | – |
| C#C[C@]1(C)[C@@H]2O[P@@](=O)(OCCC(CC)C(=O)OC3CCCC3)OC[C@H]2O[C@H]1n1ccc(=O)[nH]c1=O (stereo partly drawn) [Compound 30A] | – | > 50 | > 10 | – |
| CC(C)OC(=O)C(C)(C)CO[P@]1(=O)OC[C@H]2O[C@@H](n3ccc(=O)[nH]c3=O)[C@](C)(N)[C@@H]2O1 [Compound 15B] | – | > 50 | > 10 | – |
| CC(C)OC(=O)C(C)CCOP1(=O)OC[C@H]2O[C@@H](n3cnc4c(N)ncnc43)[C@](C)(Cl)[C@@H]2O1 (stereo partly drawn) [Compound 35A] | – | > 50 | ≤ 0.25 | – |
